Tests used:
[1] = system: Mes-Sa mCherry uterine sarcoma cell line; experiment: Triple coculture fluorescence cytotoxicity test, parental line; assay type: cell-based, human; details: 144 h incubation, fluorescence readout
Procedure: (§1) All synthesized complexes and representatives of the respective ligands (Lb, Lc, SIPr, IPr) were tested in a triple coculture of uterine sarcoma cell lines, consisting of the parental Mes-Sa cell line, and its MDR derivatives Mes-Sa/B1 and Mes-Sa/Dx5, transfected or selected in doxorubicin to overexpress P-glycoprotein, respectively (Figure 2a–c, Table S2). Each cell line expresses a distinct fluorescent protein (mCherry, mOrange, and eGFP, respectively), and the total fluorescence of a well is proportional to the cell number, allowing the assessment of compound cytotoxicity.
(§2) In a triple coculture system, cell lines expressing different fluorescent proteins were seeded in the same well. Cell lines (Mes-Sa mCherry, Mes-Sa/B1 mOrange, Mes-Sa/Dx5 eGFP [25]) were admixed and seeded on 384-well plates at a density of 3 × 800 cells/well (1:1:1 ratio), resulting in an overall total of 2400 cells. The next day, serially diluted compounds were added to the wells. Liquid handling was managed by a Hamilton StarLet pipetting robot. After 144 h of incubation, the fluorescence of mCherry (ex/em: 585/610 nm), mOrange (ex/em: 545/567 nm) and eGFP (ex/em: 485/510 nm) was recorded with an EnSpire plate reader (PerkinElmer, Waltham, MA, USA).
(§3) pIC50 values derived from both co- and monoculture systems were determined by a custom program written in C# [25], then average and standard deviations were calculated and transformed to IC50 values. Every compound was tested in at least 3 independent experiments in triplicates.

Mes-Sa/B1 mOrange = experiment: Triple coculture fluorescence cytotoxicity test, ABCB1-transfected MDR line; assay type: cell-based, human; details: for RR_B1 resistance ratio (IC50_MDR line / IC50_parental line) of Mes-Sa/B1: Mes-Sa/B1 vs Mes-Sa; for IC50: triple coculture, 144 h incubation, fluorescence readout
Procedure: as §1, §2, §3

Mes-Sa/Dx5 eGFP = experiment: Triple coculture fluorescence cytotoxicity test, doxorubicin-selected MDR line; assay type: cell-based, human; details: for RR_Dx5 resistance ratio (IC50_MDR line / IC50_parental line) of Mes-Sa/Dx5: Mes-Sa/Dx5 vs Mes-Sa; for IC50: triple coculture, 144 h incubation, fluorescence readout
Procedure: as §1, §2, §3

[2] = system: CST murine breast cancer cell line; experiment: Monoculture PrestoBlue cytotoxicity test, CST; assay type: cell-based, mouse; details: 120 h exposure
Procedure: (§4) CST, a drug-naïve murine breast cancer cell line, and cisplatin-resistant cells CST-2/3 were seeded in monoculture into 384-well plates (Corning Inc., Corning, NY, USA) at a density of 2500 cells per well using automated liquid-handling. The cells were preincubated for 24 h to ensure adherence, followed by the addition of serially diluted compounds to a final well volume of 60 µL. Following 120 h of continuous drug exposure, cell viability was quantified using the PrestoBlue viability assay (Thermo Fisher Scientific, Waltham, MA, USA) after 1 h incubation at 555 nm excitation and 585 nm emission wavelengths.
as §3

[3] = system: CST-2/3 cisplatin-resistant cells; experiment: Monoculture PrestoBlue cytotoxicity test, cisplatin-resistant CST-2/3; assay type: cell-based, mouse; details: for RR_CST resistance ratio (IC50_CST-2/3 / IC50_CST): CST-2/3 vs CST; for IC50: monoculture, 120 h exposure, PrestoBlue
Procedure: as §4, §3

[4] = system: MSCL-1 mesenchymal stem cell-like cell line; experiment: PrestoBlue cytotoxicity test, non-malignant MSCL-1; assay type: cell-based, human; details: for IC50: 72 h treatment, PrestoBlue; for MSCL-1 / CST ratio (IC50_MSCL-1/IC50_cancer line): MSCL-1 vs CST; for MSCL-1 / Mes-Sa ratio (IC50_MSCL-1/IC50_cancer line): MSCL-1 vs Mes-Sa
Procedure: The MSCL-1 line was seeded on 96-well plates with 15,000 cells/well density, and the following day, it was treated with the compounds for 72 h, when cell viability was assessed using a PrestoBlue viability assay.
as §3

Mes-Sa cells = experiment: H2DCFDA intracellular ROS assay in Mes-Sa; assay type: cell-based, human; details: 25 µM, 4 h incubation; for increase in intracellular ROS: vs 0 h
Procedure: (§5) Intracellular ROS production was assessed by the H2DCFDA—Cellular ROS Assay Kit (ab113851, Abcam, Cambridge, UK) according to the manufacturer’s instructions. Briefly, 20,000 cells (Mes-Sa and CST) were seeded on 96-well plates 1 day prior to the experiment. The cells were washed and incubated with H2DCFDA solution for 45 min in the dark. Following an additional washing step, test compounds were added in complete, phenol red free medium (FluoroBrite™, Thermo Fisher Scientific), at a final concentration of 25 µM. Fluorescence of 2′,7′-dichlorofluorescein (DCF) was measured at 484 nm/535 nm excitation/emission wavelengths. Data were normalized to baseline (0 h) values and represent at least three independent experiments.

CST cells = experiment: H2DCFDA intracellular ROS assay in CST; assay type: cell-based, mouse; details: 25 µM, 4 h incubation; for increase in intracellular ROS: vs 0 h
Procedure: as §5

Row | Compound | IC50 [1] | RR_B1 resistance ratio (IC50_MDR line / IC50_parental line) of Mes-Sa/B1 (Mes-Sa/B1 mOrange) | IC50 (Mes-Sa/B1 mOrange) | RR_Dx5 resistance ratio (IC50_MDR line / IC50_parental line) of Mes-Sa/Dx5 (Mes-Sa/Dx5 eGFP) | IC50 (Mes-Sa/Dx5 eGFP) | IC50 [2] | RR_CST resistance ratio (IC50_CST-2/3 / IC50_CST) [3] | IC50 [3] | IC50 [4] | MSCL-1 / CST ratio (IC50_MSCL-1/IC50_cancer line) [4] | MSCL-1 / Mes-Sa ratio (IC50_MSCL-1/IC50_cancer line) [4] | increase in intracellular ROS (Mes-Sa cells) | increase in intracellular ROS (CST cells) | intracellular ROS induction compared to serum-containing medium (in words) (Mes-Sa cells) | intracellular ROS induction compared to untreated control (in words) (CST cells) | further results
1 | CC(C)c1cccc(C(C)C)c1N1CCN(c2c(C(C)C)cccc2C(C)C)[C]1=[Cu][Cl] [Compound 5a] | 420 nM | 1.0 | 440 nM | 1.0 | 430 nM | 180 nM | 1.5 | 270 nM | 1150 nM | 6.5 | 2.7 | 72% | 88% | – | – | –
2 | CC(C)c1cccc(C(C)C)c1N1CCN(c2c(C(C)C)cccc2C(C)C)[C]1=[Ag][Cl] [Compound 6a] | 610 nM | 1.6 | 980 nM | 1.5 | 890 nM | 530 nM | 1.7 | 880 nM | 1240 nM | 2.3 | 2.0 | – | 107% | did not significantly induce | – | –
3 | CC(C)c1cccc(C(C)C)c1N1CCN(c2c(C(C)C)cccc2C(C)C)[C]1=[Au][Cl] [Compound 7a] | 8450 nM | 1.7 | 14400 nM | 2.2 | 18500 nM | 12200 nM | 1.0 | 12600 nM | 25700 nM | 2.1 | 3.0 | – | – | did not significantly induce | No significant ROS induction | –
4 | CC(C)c1cccc(C(C)C)c1N1CCN(c2c(C(C)C)cccc2C(C)C)[C]1=[Cu+]=[C]1N(c2c(C(C)C)cccc2C(C)C)CCN1c1c(C(C)C)cccc1C(C)C.F[B-](F)(F)F [Compound 9a] | 72 nM | 11.6 | 840 nM | 14.3 | 1040 nM | 110 nM | 2.2 | 240 nM | 810 nM | 7.3 | 11.2 | 99% | 61% | – | – | –
5 | CC(C)c1cccc(C(C)C)c1N1CCN(c2c(C(C)C)cccc2C(C)C)[C]1=[Ag+]=[C]1N(c2c(C(C)C)cccc2C(C)C)CCN1c1c(C(C)C)cccc1C(C)C.F[B-](F)(F)F [Compound 10a] | 36 nM | 79.5 | 2840 nM | 162.2 | 5790 nM | 92 nM | 2.4 | 218 nM | 560 nM | 6.1 | 15.7 | – | – | did not significantly induce | No significant ROS induction | –
6 | CC(C)c1cccc(C(C)C)c1N1C=[N+](c2c(C(C)C)cccc2C(C)C)CC1 [SIPr, reference compound] | – | 10.9 | – | 20.9 | – | – | 3.4 | – | – | 2.0 | 2.3 | – | – | did not significantly induce | No significant ROS induction | IC50 ([1]; Homo sapiens, MES-SA): 5050 nM; IC50 (Mes-Sa/B1 mOrange; Homo sapiens, MES-SA): 55000 nM; IC50 (Mes-Sa/Dx5 eGFP; Homo sapiens, MES-SA/Dx5): 106000 nM; IC50 ([2]; Mus musculus): 5920 nM; IC50 ([3]; Mus musculus): 20300 nM; IC50 ([4]; Homo sapiens): 11700 nM
